In patent publication US11841369B2, “Method for improving quality of therapeutic cell through real-time glutathione measurement” (CELL2IN, INC., priority 2017, dated 2023):

Tests used:
hUC-MSCs = test: Oxidative stress resistance capacity (ORC) analysis with RSL3; format: cell-based, human; conditions: hUC-MSCs subcultured three times with AA2G 250 μg/mL, vs naive cell group (NC)
Method: In addition, GH is calculated as the coefficient of variation or robust coefficient of variation of cellular FR. GRC refers to a value obtained by real-time monitoring of FR after living cells are treated with an oxidizing agent, as calculated by dividing a value obtained by subtracting AUC of a group treated with 0.1-100 mM N-ethylmaleimide (NEM) from FR AUC of an oxidizing agent (diamide, H2O2, etc.)-treated group by a value obtained by subtracting the AUC of NEM-treated group from AUC of the untreated control, and multiplying the resulting value by 100. The FR of the NEM-treated group is a value for increasing the sensitivity of a GRC value by treating it as the blank value of the FR of the cells of interest. […] To remove the MitoFreSH-Tracer from the medium before measurement, the medium was exchanged with fresh 10 mM HEPES-containing HBSS, and a fluorescence image was obtained using a confocal imaging system, Operetta. By comparing GSH levels quantified from control cells not treated with RSL3 or control cells before treated with RSL3, the distribution of GSH expression-changed cells was calculated. Based on the point where the distribution histogram is divided into two peaks, the cells were divided into GSH^High cells (right peak) and GSH^Low cells (left peak), and then a ratio of corresponding cells was expressed as a percentage (%). […]

T cells = test: Anti-inflammatory effect of treated hUC-MSCs: T cell proliferation, T cell differentiation, Treg cell differentiation; format: cell-based; conditions: hUC-MSCs treated with 125 or 250 μg/mL AA2G, three days
Method: The inventors observed an effect of the material on stem cells by treating each stem cells with a material for enhancing a glutathione evaluation parameter. When hUC-MSCs were subcultured in a L-AA2G-containing medium, CFU-F, migration capacity, and an anti-inflammatory effect were observed. A CFU-F assay (n=3) was performed by treating hUC-MSCs with 125 or 250 μg/mL of AA2G for three days. As shown in FIGS. 16A and 16B, it was confirmed that, when AA2G was treated, CFU-F increased. In addition, as hUC-MSCs were treated with 125 or 250 μg/mL of AA2G for three days, PDGF-AA-induced migration capacity (n=3) was analyzed. As shown in FIGS. 17A and 17B, it was confirmed that the migration capacity was increased by AA2G treatment. In addition, the reduction in T cell proliferation, a reduction in T cell differentiation, and the promotion of Treg cell differentiation were observed by treating hUC-MSCs with 125 or 250 μg/mL of AA2G for three days.
In addition, hUC-MSCs were cultured with ferrostatin-1 (0.2, 1, 2 and 4 μM) and liproxstatin-1 (0.1, 0.5, 1 and 2 μM), which control a glutathione level in cells by inhibiting lipid oxidation. […] Meanwhile, the hUC-MSCs were treated with 1 μM ferrostatin-1 for 24 hours, 0.2 mM GGC for 2 hours, and 2 mM GSH-EE for 2 hours. As a result, the reduction in T cell proliferation ability and the reduction in T cell differentiation capacity were observed, and promotion of Treg cell differentiation was observed.

How did the “FreSH-Tracer-based ORC (GSH^High cells)” value (hUC-MSCs) turn out when `O=C1O[C@H]([C@@H](O)CO)C(O)=C1O[C@H]1O[C@H](CO)[C@@H](O)[C@H](O)[C@H]1O` [AA2G, ascorbic acid 2-glucoside] was run?
Its value is “higher”.

What about the T cell differentiation (T cells) of the same molecule?
The T cell differentiation was “reduction”.

And the T cell proliferation (T cells)?
The T cell proliferation was “reduction”.

And the Treg cell differentiation (T cells)?
Its Treg cell differentiation is “promotion”.

What about the “anti-inflammatory effect of stem cells” value (T cells) of the same molecule?
The value was “exhibited”.
